Data from patent US10300130B2, “Cytomegalovirus vaccines and methods of production” (The Trustees of Princeton University, priority 2007, dated 2019).

What was measured:
BFXwt = assay: Dependence of infection on endosome acidification (IE1-positive ARPE-19 cells), BFXwt; type: cell-based, HCMV; conditions: 50 mM NH4Cl or 40 nM BFA, 0.01 pfu/cell
Description: (§1) FIGS. 3A-3B. Effects of inhibitors of endosome acidification and virion source on HCMV entry into ARPE-19 cells. Experiments were performed in triplicate, and the number of positive cells in drug-treated relative to untreated cultures is reported. FIG. 3A: Cells were pretreated with NH4Cl or BFA for 1 h, inoculated with epiBADrUL131 or fibroBADrUL131 (1 pfu/cell) and stained for IE 1 16 h later. FIG. 3B: Cells were pretreated with 50 mM NH4Cl or 40 nM BFA for 1 h, and then inoculated with BADrUL131 (0.1 pfu/cell) or FIXwt (0.01 pfu/cell) produced in the indicated cell types and stained for IE1 16 h later.
(§2) ARPE-19 cells were pretreated with NH4Cl or Bafilomycin A1 (BFA) (Sigma) for 1 h at 37° C., followed by infection in the continued presence of the inhibitor. 16 h later, cultures were fixed in 2% paraformaldehyde and permeabilized with 0.1% Triton X-100. IE1 was identified by immunofluorescence using monoclonal antibody IB12 (21) plus Alexa 546-conjugated secondary antibody and nuclei were stained with DAPI. Inhibition was calculated as the percentage of IE1-expressing drug-treated relative to untreated cells.
The effect of endosomal pH on entry of the BFXwt clinical isolate into ARPE-19 cells was also assayed (FIG. 3B. right panel).

BADrUL131 = assay: Dependence of infection on endosome acidification (IE1-positive ARPE-19 cells), BADrUL131; type: cell-based, HCMV; conditions: 1 h pretreatment, 1 pfu/cell, IE1 16 h later
Description: as §1, §2
Many viruses that enter cells by endocytosis (1, 4, 10) require acidification of endosomes for the virion envelope to fuse with the endosomal membrane and release the capsid into the cytoplasm. NH4Cl. which buffers endosomal pH, and bafilomycin A1 (BFA), which blocks the endosomal ATPase proton pump, were tested for their effect on infection of ARPE-19 cells. After pretreatment with either agent, cells were infected and cultured in drug containing medium for a further 16 h. Successful infections were scored by assaying for IE1-positive cells.

SMILES	effect on number of IE1-positive ARPE-19 cells, epithelial cell-derived BFXwt (BFXwt)	effect on number of IE1-positive ARPE-19 cells, fibroblast-generated BFXwt (BFXwt)	effect of pretreatment on epiBADrUL131 infection (IE1-positive cells) (BADrUL131)	effect of pretreatment on fibroBADrUL131 infection (IE1 expression) (BADrUL131)
CO/C1=C\C(C)=C\[C@@H](C)[C@@H](O)[C@@H](C)C/C(C)=C/C=C/[C@H](OC)[C@@H]([C@@H](C)[C@@H](O)[C@H](C)[C@@]2(O)C[C@@H](O)[C@H](C)[C@@H](C(C)C)O2)OC1=O [BFA, Bafilomycin A1]	only a slight inhibition	significantly reduced	only a modest effect	inhibited IE1 expression
Cl.N [NH4Cl]	only a slight inhibition	significantly reduced	only a modest effect	inhibited IE1 expression
